Tests used:
[1] = system: uveal melanoma (UM 92.1) cell line; experiment: IncuCyte proliferation assay (% cell confluency); assay type: cell-based; details: UM 92.1 (GNAQ mutant), increasing concentrations of Tigecycline, 72 h, FIG. 4
Description: (§1) For IncuCyte Proliferation Assays, cells were plated in 96-well plates (TPP) at the appropriate density (between 2.5×10^3, to 1.5×10^4). Cells were treated with increasing amounts of Tigecycline or Doxycycline and cultured for 72 h. Apoptotic cells were labelled with the IncuCyte Caspase 3/7 Green Apoptosis Assay Reagent (Essen BioScience). Four images per well were taken at 2-hour intervals using an IncuCyte ZOOM system (Essen BioScience). The percentage of cell confluency and fluorescent green counts indicating apoptotic cells were measured and analysed by the IncuCyte ZOOM software.

[2] = system: uveal melanoma cell line (UM92.1); experiment: IncuCyte Caspase 3/7 Green apoptosis assay; assay type: cell-based; details: UM92.1, increasing concentrations of Tigecycline
Description: as §1

[3] = system: uveal melanoma PDX model Mel-077; experiment: Uveal melanoma PDX experiment, tumour volume; assay type: in vivo; details: Mel-077 PDX mice, Tigecycline 50 mg/kg daily i.p. monotreatment vs vehicle (DMSO), FIG. 5
Description: Tumour pieces were implanted subcutaneously in the interscapular fat pad of female NMRI nude, 4-week-old females. Once tumours reached 250 mm^3, the mice were enrolled into treatment cohorts. Mice were treated with Tigecycline (50 mg/kg) administered by daily i.p. injection. No specific randomization method was used.

CN(C)c1cc(NC(=O)CNC(C)(C)C)c(O)c2c1C[C@H]1C[C@H]3[C@H](N(C)C)C(O)=C(C(N)=O)C(=O)[C@@]3(O)C(O)=C1C2=O [Tigecycline]
cell growth (measured as % of cell confluency) [1]: significant and dose-dependent decrease in cell growth | apoptosis (activated caspase 3/7 staining) [2]: no increase in apoptosis | tumour growth / progression (tumour volume) [3]: sufficient to stabilise tumour growth and significantly delay progression

— patent US20220211726A1, “UVEAL MELANOMA TREATMENT” (Katholieke Universiteit Leuven, priority 2019, published 2022)
